Values joined by “and” are separate entries in the source; they are usually repeats but may differ in a detail not shown here. Equal values may be shown once. Toxic doses and inconclusive results are not listed.
System: P388 leukemia ip, CD2F1 mice, survival T/C
Assay: NCI In Vivo Anticancer Drug Screen. Data for tumor model P388 Leukemia (intraperitoneal) in CD2F1 (CDF1) mice
Details: endpoint: median survival time, higher = longer survival
Procedure, shortened: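 Mice carrying the transplanted tumor received test compound or vehicle. Survival was recorded in each group, and the value is the treated-group measurement divided by that of the vehicle-treated control group.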

[1] = dose: 30.0 mg/kg/injection, schedule: Q01DX005 (ip), vehicle: saline with Tween-80
[2] = dose: 60.0 mg/kg/injection, schedule: Q01DX005 (ip), vehicle: saline with Tween-80
[3] = dose: 120.0 mg/kg/injection, schedule: Q01DX005 (ip), vehicle: saline with Tween-80
[4] = dose: 240.0 mg/kg/injection, schedule: Q01DX005 (ip), vehicle: saline with Tween-80
[5] = dose: 50.0 mg/kg/injection, schedule: Q01DX009 (ip), vehicle: saline
[6] = dose: 100.0 mg/kg/injection, schedule: Q01DX009 (ip), vehicle: saline
[7] = dose: 200.0 mg/kg/injection, schedule: Q01DX009 (ip), vehicle: saline
[8] = dose: 12.5 mg/kg/injection, schedule: Q01DX005 (ip), vehicle: saline with Tween-80
[9] = dose: 25.0 mg/kg/injection, schedule: Q01DX005 (ip), vehicle: saline with Tween-80
[10] = dose: 50.0 mg/kg/injection, schedule: Q01DX005 (ip), vehicle: saline with Tween-80
[11] = dose: 100.0 mg/kg/injection, schedule: Q01DX009 (ip), vehicle: saline with Tween-80
[12] = dose: 200.0 mg/kg/injection, schedule: Q01DX009 (ip), vehicle: saline with Tween-80
[13] = dose: 50.0 mg/kg/injection, schedule: Q01DX009 (ip), vehicle: saline with Tween-80
[14] = dose: 15.0 mg/kg/injection, schedule: Q01DX005 (ip), vehicle: saline with Tween-80

## O=c1[nH]cc(N(CCCl)CCCl)c(=O)[nH]1
dose: 0.05 mg/kg/injection, schedule: Q01DX009 (ip), vehicle: saline with Tween-80
  T/C: 109 % of control
dose: 0.08 mg/kg/injection, schedule: Q01DX009 (ip), vehicle: saline with Tween-80
  T/C: 109 % of control
dose: 0.39 mg/kg/injection, schedule: Q01DX009 (ip), vehicle: saline with Tween-80
  T/C: 181 % of control
dose: 0.65 mg/kg/injection, schedule: Q01DX009 (ip), vehicle: saline with Tween-80
  T/C: 181 % of control
dose: 1.1 mg/kg/injection, schedule: Q01DX009 (ip), vehicle: saline with Tween-80
  T/C: 236 % of control
dose: 1.8 mg/kg/injection, schedule: Q01DX009 (ip), vehicle: saline with Tween-80
  T/C: 227 % of control
dose: 3.0 mg/kg/injection, schedule: Q01DX009 (ip), vehicle: saline with Tween-80
  T/C: 118 % of control

## CN1C(NC(=O)C(C)(C)O)C(C)(C)C(C)(C)C1NC(=O)C(C)(C)O (configuration not stated)
[1]
  T/C: 121 % of control
[2]
  T/C: 123 % of control
[3]
  T/C: 151 % of control
[4]
  T/C: 123 % of control

## CCCOc1ccc2c(NCCCCCCNc3c4ccccc4nc4cc(OCCC)ccc34)c3ccccc3nc2c1
dose: 0.62 mg/kg/injection, schedule: Q## X009 (ip), vehicle: lactic acid
  T/C: 121 % of control
dose: 2.5 mg/kg/injection, schedule: Q## X009 (ip), vehicle: lactic acid
  T/C: 120 % of control
dose: 5.0 mg/kg/injection, schedule: Q## X009 (ip), vehicle: lactic acid
  T/C: 105 % of control

## O=[N+]([O-])c1cc2c(cc1Br)C1C(C3C2C2(Cl)C(Cl)=C(Cl)C3(Cl)C2(Cl)Cl)C2(Cl)C(Cl)=C(Cl)C1(Cl)C2(Cl)Cl (configuration not stated)
[5]
  T/C: 107 % of control
[6]
  T/C: 105 % of control
[7]
  T/C: 108 % of control

## C=C(Cl)C(=NC(C)(C)C)Nc1ccc(Cl)cc1
dose: 6.25 mg/kg/injection, schedule: Q01DX005 (ip), vehicle: Klucel (hydroxypropylcellulose) (HPC)
  T/C: 114 % of control
dose: 12.5 mg/kg/injection, schedule: Q01DX005 (ip), vehicle: Klucel (hydroxypropylcellulose) (HPC)
  T/C: 117 % of control
dose: 25.0 mg/kg/injection, schedule: Q01DX005 (ip), vehicle: Klucel (hydroxypropylcellulose) (HPC)
  T/C: 112 % of control
dose: 50.0 mg/kg/injection, schedule: Q01DX005 (ip), vehicle: Klucel (hydroxypropylcellulose) (HPC)
  T/C: 110 % of control
dose: 100.0 mg/kg/injection, schedule: Q01DX005 (ip), vehicle: Klucel (hydroxypropylcellulose) (HPC)
  T/C: 115 % of control

## COc1cc(NCCCCCNC(C)C)c2ncccc2c1
[8]
  T/C: 103 % of control
[9]
  T/C: 113 % of control
[10]
  T/C: 100 % of control

## COC(=O)c1ccc(/C=C/C#N)cc1
[5]
  T/C: 100 % of control
[6]
  T/C: 102 % of control
[7]
  T/C: 97 % of control

## CC(C)CCCCc1c[nH]c(=O)[nH]c1=O
[11]
  T/C: 95 % of control
[12]
  T/C: 90 % of control
dose: 400.0 mg/kg/injection, schedule: Q01DX009 (ip), vehicle: saline with Tween-80
  T/C: 100 % of control

## CC(=O)Nc1nc(NC(C)=O)c(N=O)c(NC(C)=O)n1
dose: 25.0 mg/kg/injection, schedule: Q01DX009 (ip), vehicle: saline with Tween-80
  T/C: 103 % of control
dose: 25.0 mg/kg/injection, schedule: Q01DX009 (ip), vehicle: saline
  T/C: 108 % of control
[13]
  T/C: 103 % of control
[5]
  T/C: 108 % of control and 120 % of control
[11]
  T/C: 94 % of control
[6]
  T/C: 112 % of control

## CC(C)(C)c1cc(/C=N/NC(=O)CC2CCCCC2)cc(C(C)(C)C)c1O
[2]
  T/C: 96 % of control
[3]
  T/C: 100 % of control
[4]
  T/C: 87 % of control

## O=C1c2ccccc2C(=O)c2c(NCCN3CCNCC3)ccc(NCCN3CCNCC3)c21
dose: 4.0 mg/kg/injection, schedule: Q01DX009 (ip), vehicle: acid diluted with saline
  T/C: 103 % of control
dose: 8.0 mg/kg/injection, schedule: Q01DX009 (ip), vehicle: acid diluted with saline
  T/C: 109 % of control
dose: 12.5 mg/kg/injection, schedule: Q01DX009 (ip), vehicle: water
  T/C: 107 % of control
dose: 16.0 mg/kg/injection, schedule: Q01DX009 (ip), vehicle: acid diluted with saline
  T/C: 120 % of control
dose: 50.0 mg/kg/injection, schedule: Q01DX009 (ip), vehicle: water
  T/C: 123 % of control

## CC(C)CC(=O)NC(C(=O)NC(C(=O)NC(CC(C)C)C(O)CC(=O)NC(C)C(=O)NC(CC(C)C)C(O)CC(=O)O)C(C)C)C(C)C (configuration not stated)
dose: 6.25 mg/kg/injection, schedule: Q01DX009 (ip), vehicle: Klucel (hydroxypropylcellulose) (HPC)
  T/C: 102 % of control
dose: 50.0 mg/kg/injection, schedule: Q01DX009 (ip), vehicle: Klucel (hydroxypropylcellulose) (HPC)
  T/C: 98 % of control and 122 % of control and 87 % of control
dose: 100.0 mg/kg/injection, schedule: Q01DX009 (ip), vehicle: Klucel (hydroxypropylcellulose) (HPC)
  T/C: 90 % of control and 95 % of control

## CC1/C=C/C=C/CC/C=C/C=C/C=C/C=C/C(OC2OC(C)C(O)C(N)C2O)CC2OC(CC(O)C(O)CCC(O)CC(O)CC(O)CC(=O)OC(C)C(C)C1O)CC(O)C2C(=O)O (configuration not stated)
dose: 6.25 mg/kg/injection, schedule: Q01DX005 (ip), vehicle: saline with Tween-80
  T/C: 95 % of control
dose: 9.5 mg/kg/injection, schedule: Q01DX009 (ip), vehicle: saline sonified
  T/C: 100 % of control
[8]
  T/C: 109 % of control
dose: 19.0 mg/kg/injection, schedule: Q01DX009 (ip), vehicle: saline sonified
  T/C: 95 % of control
[9]
  T/C: 104 % of control
dose: 38.0 mg/kg/injection, schedule: Q01DX009 (ip), vehicle: saline sonified
  T/C: 100 % of control
[10]
  T/C: 95 % of control

## CC(C)=NNC1=NC(CC(C)C)P(=O)(NCCCCCCNP2(=O)SC(NN=C(C)C)=NC2CC(C)C)S1 (configuration not stated)
dose: 60.0 mg/kg/injection, schedule: Q01DX005 (ip), vehicle: Klucel (hydroxypropylcellulose) (HPC)
  T/C: 97 % of control
dose: 120.0 mg/kg/injection, schedule: Q01DX005 (ip), vehicle: Klucel (hydroxypropylcellulose) (HPC)
  T/C: 103 % of control
dose: 240.0 mg/kg/injection, schedule: Q01DX005 (ip), vehicle: Klucel (hydroxypropylcellulose) (HPC)
  T/C: 95 % of control

## Nc1nc(-c2cccnc2)cc(-c2cc(-c3cccnc3)nc(N)n2)n1
dose: 60.0 mg/kg/injection, schedule: Q01DX005 (ip), vehicle: saline
  T/C: 96 % of control
dose: 120.0 mg/kg/injection, schedule: Q01DX005 (ip), vehicle: saline
  T/C: 100 % of control

## COc1c2c(cc3ccc(=O)oc13)C=CC(C)(C)O2
dose: 9.75 mg/kg/injection, schedule: Q01DX005 (ip), vehicle: Klucel (hydroxypropylcellulose) (HPC)
  T/C: 100 % of control
dose: 19.5 mg/kg/injection, schedule: Q01DX005 (ip), vehicle: Klucel (hydroxypropylcellulose) (HPC)
  T/C: 89 % of control
dose: 39.0 mg/kg/injection, schedule: Q01DX005 (ip), vehicle: Klucel (hydroxypropylcellulose) (HPC)
  T/C: 100 % of control
dose: 78.0 mg/kg/injection, schedule: Q01DX005 (ip), vehicle: Klucel (hydroxypropylcellulose) (HPC)
  T/C: 89 % of control

## CCn1c2ccccc2c2cc(N=Nc3cc(N)ccc3N(C)C)ccc21
[10]
  T/C: 87 % of control
dose: 100.0 mg/kg/injection, schedule: Q01DX005 (ip), vehicle: saline with Tween-80
  T/C: 87 % of control
dose: 200.0 mg/kg/injection, schedule: Q01DX005 (ip), vehicle: saline with Tween-80
  T/C: 87 % of control

## COc1cc(CO)c(I)c(OC)c1OC
dose: 100.0 mg/kg/injection, schedule: Q01DX001 (ip), vehicle: Klucel (hydroxypropylcellulose) (HPC)
  T/C: 99 % of control
dose: 200.0 mg/kg/injection, schedule: Q01DX001 (ip), vehicle: Klucel (hydroxypropylcellulose) (HPC)
  T/C: 97 % of control

## COc1ccc(C(c2c(O)c3ccccc3oc2=O)N2CCCC2)cc1 (configuration not stated)
[14]
  T/C: 100 % of control
[1]
  T/C: 100 % of control
[2]
  T/C: 103 % of control and 97 % of control

## NC1CC2c3ccccc3C1c1ccccc12 (configuration not stated)
[8]
  T/C: 100 % of control
[9]
  T/C: 100 % of control
[10]
  T/C: 100 % of control

## CCC[CH2][Sn]1([CH2]CCC)[O]CCN2CCN(CC[O]1)CC2
dose: 3.75 mg/kg/injection, schedule: Q01DX005 (ip), vehicle: saline with Tween-80
  T/C: 102 % of control
dose: 7.5 mg/kg/injection, schedule: Q01DX005 (ip), vehicle: saline with Tween-80
  T/C: 100 % of control
[14]
  T/C: 100 % of control

## CCc1c2c(c(C)n1C)C(c1ccccc1)=NCC(=O)N2
[13]
  T/C: 91 % of control
[11]
  T/C: 98 % of control
[12]
  T/C: 98 % of control

## C[n+]1c(/C=N/NC(N)=S)ccc2ccccc21
[11]
  T/C: 118 % of control

## C1CN2CCCN3CCCN(C1)P23
dose: 100.0 mg/kg/injection, schedule: Q04DX002 (ip), vehicle: saline
  T/C: 115 % of control
dose: 200.0 mg/kg/injection, schedule: Q04DX002 (ip), vehicle: saline
  T/C: 98 % of control

## O=C1N=NC2NC=CN3C=CC=C1C23 (configuration not stated)
[2]
  T/C: 102 % of control
[3]
  T/C: 107 % of control
[4]
  T/C: 110 % of control

Reference: PubChem BioAssay AID330 (DTP/NCI, 2004)
